From US20140011799A1 (Bristol-Myers Squibb Company, priority 2012, published 2014) come the findings set out here.

Assay [1] has as its target T1, Endothelial lipase (EL) (Homo sapiens, UniProt Q9Y5X9).
T1 construct: HT-1080 cells that were transformed using RAGE technology (Athersys) to overexpress endogenous EL; endogenous in cells; conditioned medium used
T1 sequence (Q9Y5X9 21-500): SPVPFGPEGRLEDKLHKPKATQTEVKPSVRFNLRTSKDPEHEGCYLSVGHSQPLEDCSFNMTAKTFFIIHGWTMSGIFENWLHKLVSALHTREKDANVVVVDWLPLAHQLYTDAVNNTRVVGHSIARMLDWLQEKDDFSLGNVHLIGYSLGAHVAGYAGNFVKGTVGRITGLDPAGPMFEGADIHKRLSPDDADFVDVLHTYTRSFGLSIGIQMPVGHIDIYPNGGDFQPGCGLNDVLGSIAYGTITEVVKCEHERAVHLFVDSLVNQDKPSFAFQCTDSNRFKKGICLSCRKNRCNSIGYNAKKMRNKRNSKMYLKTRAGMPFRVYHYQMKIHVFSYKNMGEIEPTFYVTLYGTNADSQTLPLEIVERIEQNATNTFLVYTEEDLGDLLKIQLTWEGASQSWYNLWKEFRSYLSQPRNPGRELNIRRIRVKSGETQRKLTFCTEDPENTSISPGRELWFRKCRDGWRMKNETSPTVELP
Briefly: Endothelial lipase (EL) enzymatic assay, fluorescent substrate A10070 in DMPG vesicles. The class given is biochemical. The conditions noted are these: EL from conditioned media of HT-1080 cells; compound preincubated 30 min at 37° C; read-out: EL IC50. The gist of the method:
(§1)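 Compounds were preincubated with enzyme for 30 min at 37° C before FRET-substrate vesicles (A10070 in DMPG, 0.11 mole fraction) were added. Reaction rates were obtained from the 300–900 sec slope of fluorescence at 490/530 nm.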

Assay [2] concerns the target T2, hepatic lipase (HL) (Homo sapiens, UniProt P11150).
T2 construct: made in house; host or cells: COS cells (conditioned medium, partially purified)
T2 sequence (P11150 23-499): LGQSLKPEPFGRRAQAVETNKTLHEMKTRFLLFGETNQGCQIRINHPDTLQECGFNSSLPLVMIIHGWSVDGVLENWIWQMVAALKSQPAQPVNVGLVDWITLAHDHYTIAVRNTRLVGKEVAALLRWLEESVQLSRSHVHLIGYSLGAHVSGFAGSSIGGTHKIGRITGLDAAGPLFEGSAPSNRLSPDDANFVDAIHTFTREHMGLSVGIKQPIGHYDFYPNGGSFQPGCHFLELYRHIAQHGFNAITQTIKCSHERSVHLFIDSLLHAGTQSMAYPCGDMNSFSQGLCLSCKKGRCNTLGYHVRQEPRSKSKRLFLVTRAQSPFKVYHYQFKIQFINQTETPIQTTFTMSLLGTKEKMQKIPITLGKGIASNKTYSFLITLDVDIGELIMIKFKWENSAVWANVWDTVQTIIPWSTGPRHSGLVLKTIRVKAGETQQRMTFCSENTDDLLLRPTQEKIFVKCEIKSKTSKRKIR
Briefly: Hepatic lipase (HL) enzymatic assay, fluorescent substrate A10070 in DMPG vesicles. The format is biochemical. The note with it: HL partially purified from conditioned media of COS cells; compound preincubated 30 min at 37° C; read-out: HL IC50. The method in brief: as §1

As to `NS(=O)(=O)NCc1nnc(C(c2nc3ccc(-c4cccc(Cl)c4)cc3s2)S(=O)(=O)Cc2ccccc2)o1` (stereo not drawn) [Example 129, N-((5-((benzylsulfonyl)(6-(3-chlorophenyl)-1,3-benzothiazol-2-yl)methyl)-1,3,4-oxadiazol-2-yl)methyl) sulfamide], the concentration for half-maximal inhibition (IC50) in assay [1] and in assay [2] was below 10 nM in each case.
On to `Cn1ccc(-c2ccc3sc(C(c4nnc(CNS(N)(=O)=O)o4)S(C)(=O)=O)nc3c2)cc1=O` (stereo not drawn) [Example 245, N-[(5-{methanesulfonyl[5-(1-methyl-2-oxo-1,2-dihydropyridin-4-yl)-1,3-benzothiazol-2-yl]methyl}-1,3,4-oxadiazol-2-yl)methyl]aminosulfonamide], for which the IC50 in assay [1] was 8 nM; in assay [2], 72 nM.
The like results for `CC(C)(C)CNC(=O)c1cccc(-c2ccc3nc(C(c4nnc(CNS(N)(=O)=O)o4)S(C)(=O)=O)sc3c2)c1` (stereo not drawn) [Example 260, N-(2,2-dimethylpropyl)-3-{2-[methanesulfonyl({5-[(sulfamoylamino)methyl]-1,3,4-oxadiazol-2-yl})methyl]-1,3-benzothiazol-6-yl}benzamide] were, in that order, 3 nM and 7 nM.
On to `CN(C(=O)c1cccc(-c2ccc3nc(C(c4nnc(CC5(C)NC(=O)NC5=O)o4)S(C)(=O)=O)sc3c2)c1)C1CC1` (stereo not drawn) [Example 221, N-cyclopropyl-3-{2-[methanesulfonyl({5-[(4-methyl-2,5-dioxoimidazolidin-4-yl)methyl]-1,3,4-oxadiazol-2-yl})methyl]-1,3-benzothiazol-6-yl}-N-methylbenzamide], for which the IC50 in assay [1] stood at 1 nM; in assay [2] it was 25 nM.
The like results for `NS(=O)(=O)NCc1nnc(C(c2nc3ccc(-c4ccc(F)c(Cl)c4)cc3s2)S(=O)(=O)Cc2ccccc2)o1` (stereo not drawn) [Example 139, N-((5-((benzylsulfonyl)(6-(3-chloro-4-fluorophenyl)-1,3-benzothiazol-2-yl)methyl)-1,3,4-oxadiazol-2-yl)methyl) sulfamide] were, in that order, below 10 nM and below 10 nM.
Regarding `CS(=O)(=O)C(c1nnc(CC2SC(=O)NC2=O)o1)c1nc2ccc(-c3cnc(O)nc3)cc2s1` (stereo not drawn) [Example 182, 5-((5-((Methylsulfonyl)(6-(2-oxo-1,2-dihydro-5-pyrimidinyl)-1,3-benzothiazol-2-yl)methyl)-1,3,4-oxadiazol-2-yl)methyl)-1,3-thiazolidine-2,4-dione], the results for the IC50 in assay [1] and in assay [2] were below 10 nM and 84 nM, respectively.
With `CN(C)C(=O)c1ccc(-c2ccc3nc(C(c4nnc(CNS(N)(=O)=O)o4)S(=O)(=O)Cc4ccccc4)sc3c2)cc1Cl` (stereo not drawn) [Example 146, 4-(2-((benzylsulfonyl)(5-((sulfamoylamino)methyl)-1,3,4-oxadiazol-2-yl)methyl)-1,3-benzothiazol-6-yl)-2-chloro-N,N-dimethylbenzamide], the IC50 in assay [1] was below 10 nM; in assay [2], 391 nM.
For `CC(C)(C)[C@H](O)C(=O)NCc1nnc(C(c2nc3ccc(-c4ccccc4)cc3s2)S(C)(=O)=O)o1` (stereo partly drawn) [Example 155, (2S)-2-hydroxy-3,3-dimethyl-N-((5-((methylsulfonyl)(6-phenyl-1,3-benzothiazol-2-yl)methyl)-1,3,4-oxadiazol-2-yl)methyl)butanamide] the same measures were 137 nM and 26 nM.
In the case of `CC1(Cc2nnc(C(c3nc4ccc(-c5cccc(C(=O)N6CC[C@H](F)C6)c5)cc4s3)S(C)(=O)=O)o2)NC(=O)NC1=O` (stereo partly drawn) [Example 228, 5-({5-[(6-{3-[(3S)-3-fluoropyrrolidine-1-carbonyl]phenyl}-1,3-benzothiazol-2-yl) (methanesulfonyl)methyl]-1,3,4-oxadiazol-2-yl}methyl)-5-methyl-imidazolidine-2,4-dione], the 50% inhibitory concentration (IC50) is 114 nM in assay [1] and 170 nM in assay [2].

As usually defined, the IC50 is the concentration at which inhibition is half-maximal.
